Data on three compounds can be found in patent US11389435B2, “Compositions and methods for treating epilepsy” (BIOVISTA, INC., priority 2008, dated 2022).

One series deals with NMDA receptor. The settings on record: Grigoriev et al. Chim. Pharm. Journal, 1988; cited from earlier work.
The conditions of series [1]: at the doses in which it produces its anti-NMDA effect; cited from earlier work.
Series [2] relates to Male Wistar rats. As to the kind of experiment: Acute anticonvulsant activity using the kainic acid seizure test in rat. The class given is in vivo. Conditions: single dose 100 mg/kg i.p. 60 minutes prior to kainic acid. As to the method: Male Wistar rats (such as Male Rj: […] Animals are acclimatized to laboratory conditions for least 3 days. […] Additional details are described in Ben-Ari et al, Neuroscience, 6, 1361-1391, 1981 for detecting anticonvulsant activity related to a glutamatergic mechanism. Animals are injected with kainic acid (12 mg/kg i.p.). The occurrences of the following symptoms are noted over a 120 minute period after kainic acid injection: wet-shakes, rearings, and rearings with forelimb clonus. […] In addition, the latencies to the first appearance of the symptoms are measured and the number of forelimb clonus are counted. The number of forelimb clonus episodes per time interval starting from the first occurrence of forelimb clonus will be considered regarding the severity scale. 10 animals are studied per group. The test is performed blind. Quantitative data is analyzed by comparing treated groups with vehicle control using unpaired Student's t tests. Quantal data is analyzed by comparing treated groups with vehicle control using Fisher's Exact Probability tests. Acute Anticonvulsant Activity Using the Kainic Acid Seizure Test in Rat. Dimebon, or an analog or derivative thereof, including the compounds described herein, is shown to be efficacious in the rat kainic acid anticonvulsant activity model. […] The 100 mg/kg formulation is prepared in 0.2% HPMC in physiological saline.

In series [3] the test system is Male Wistar rats. In words: Chronic anticonvulsant activity using the kainic acid seizure test in rat. The class given is in vivo. Conditions: for Wet-shakes Presence: 120 min observation; for Wet-shakes Presence / Rearings Presence / Rearings with Forelimb Clonus Presence: out of 10 animals; for Forelimb Clonus No.: average number of all animals; for Rearings Latency / Rearings with Forelimb Clonus Latency / Wet-shakes Latency: average of all animals. An excerpt: Chronic Anticonvulsant Activity Using the Kainic Acid Seizure Test in Rat. Dimebolins, including the compounds described herein, are shown to be efficacious in the rat kainic acid anticonvulsant activity model. It is appreciated that this model, though general, may also most closely correspond to and/or be more predictive of temporal lobe epilepsy found in humans. However, it is to be understood that this model is a general surrogate for all types of epilepsy.
Male Wistar rats (such as Male Rj: Wistar (Han) rats, weighing 180-280 g at the day of testing, from Elevage Janvier, 53940 Le Genest-Saint-Isle, France) are placed in groups of 4-5 in macrolon cages (41×25×18 cm or 44×28×19 cm) on wood litter (Litalabo—SPPS, 95100 Argenteuil, France), with free access to food and water until tested, and maintained under artificial lighting (12 hours) between 7:00 and 19:00 in a controlled ambient temperature of about 21° C., and relative humidity between 30-80%. Animals are acclimatized to laboratory conditions for least 3 days. Animals surviving the experiments are sacrificed at the end of the experiments by exposure to a mixture of O2/CO2 (20%/80%) followed by CO2.
Dimebon, or an analog or derivative thereof, either alone or in combination with one or more other compounds as described herein, is evaluated at 3 doses (e.g. 1, 3, and 10 mg/kg), administered i.p. once daily for seven days, with a administration volume of 5 mL/kg. The last administration (7th) is injected 30 minutes prior to kainic acid administration, and compared with a vehicle control group. The test article (single compound or combination) is prepared in 0.2% HPMC in physiological saline as follows: The test article is tested for solubility by cold stirring of the highest intended dose for 10 minutes in physiological saline. If soluble, physiological saline serves as vehicle, and doses are prepared W/V (stock) and then V/V (serial dilutions). Preparations may be made freshly for each day of administration and precautions may be taken to preserve the homogeneity of suspensions (if applicable) during the period of administration.
Diazepam (4 mg/kg i.p.) is administered in 0.2% HPMC in physiological saline 30 minutes prior to KA, and is used as reference substance (positive control). Kainic acid (12 mg/kg i.p.) dissolved in physiological saline is administered 30 minutes following the 7th administration of test article, diazepam, or vehicle control. Additional details are described in Ben-Ari et al, Neuroscience, 6, 1361-1391, 1981 for detecting anticonvulsant activity related to a glutamatergic mechanism.
Animals are injected with kainic acid (12 mg/kg i.p.). The occurrences of the following symptoms are noted over a 120 minute period after kainic acid injection: wet-shakes, rearings, and rearings with forelimb clonus. […] In addition, the latencies to the first appearance of the symptoms are measured and the number of forelimb clonus are counted. The number of forelimb clonus episodes per time interval starting from the first occurrence of forelimb clonus will be considered regarding the severity scale. 10 animals are studied per group. The test is performed blind. Quantitative data is analyzed by comparing treated groups with vehicle control using unpaired Student's t tests. Quantal data is analyzed by comparing treated groups with vehicle control using Fisher's Exact Probability tests.

The mark [4] stands for this setting: 1 mg/kg i.p. once daily 7 days, last 30 min before kainic acid.
Where [5] appears, read: 1 mg/kg i.p. once daily 7 days, last 30 min before kainic acid 12 mg/kg i.p.
Where [6] appears, read: 3 mg/kg i.p. once daily 7 days, last 30 min before kainic acid.
Setting [7] is: 3 mg/kg i.p. once daily 7 days, last 30 min before kainic acid 12 mg/kg i.p.
Where [8] appears, read: 10 mg/kg i.p. once daily 7 days, last 30 min before kainic acid.
[9] abbreviates: 10 mg/kg i.p. once daily 7 days, last 30 min before kainic acid 12 mg/kg i.p.
Setting [10] is: reference substance 4 mg/kg i.p. 30 minutes prior to kainic acid.
Where [11] appears, read: reference substance 4 mg/kg i.p. 30 minutes prior to kainic acid 12 mg/kg i.p.

Marks after values point to notes of the source that are not given here.

In the case of `NC(CCCP(=O)(O)O)C(=O)O` (stereo not drawn) [AP5, 2-amino-5-phosphonovaleric acid], the “ED50 (anti-NMDA effect)” value in the series with NMDA receptor is reported as 190 mg/kg. Moreover, in series [1], the neurotoxic effects entry is “disturbance of coordination of movement and a sedative effect”.
As to `Cc1ccc2c(c1)c1c(n2CCc2ccc(C)nc2)CCN(C)C1` [Dimebon, 2,8-dimethyl-5-[2-(6-methyl-3-pyridyl)ethyl]-2,3,4,5-tetrahydro-1H-pyrido[4,3-b]indole], in the series on Male Wistar rats [2], the “Forelimb Clonus No., % change from vehicle” value (“Forelimb Clonus No., % change” below) is −54%; the “Rearings Latency, % change from vehicle” value is recorded as “+57%”; the “Rearings Presence, % change from vehicle” value is −78%; the “Rearings with Forelimb Clonus Latency, % change from vehicle” value is −10%. For the same compound, in the series with Male Wistar rats [2], the “Rearings with Forelimb Clonus Presence, % change from vehicle” value is −40%; the “Wet-shakes Latency, % change from vehicle” value (shortened to “Wet-shakes Latency, % change”) is “+79%^(f)”; the “Wet-shakes Presence, % change from vehicle” value (“Wet-shakes Presence, % change” below) is −50%^(e). For the same compound, the “Forelimb Clonus No.” value in the series on Male Wistar rats [2] (average number of all animals) is listed as 1.3 ^NS. In the series with Male Wistar rats [2] (average of all animals), the “Rearings Latency” value is given as 6197 * seconds, the “Rearings with Forelimb Clonus Latency” value is 4546 ^NS seconds and the “Wet-shakes Latency” value is on record as 4394 ^NS seconds. Moreover, in the series with Male Wistar rats [2] (out of 10 animals), the “Rearings Presence” value is 2 *, the “Rearings with Forelimb Clonus Presence” value is 6 ^NS and the “Wet-shakes Presence” value is reported as 5 ^NS. In the series with Male Wistar rats [3] (setting [4]), the “Forelimb Clonus No., % change” value is listed as −32%; the “Rearings Latency, % change from vehicle” value is reported as “+24%”; the “Rearings Presence, % change from vehicle” value is on record as −33%; the “Rearings with Forelimb Clonus Latency, % change from vehicle” value is “+19%”. Moreover, in the series with Male Wistar rats [3] (setting [4]), the “Rearings with Forelimb Clonus Presence, % change from vehicle” value is −30%; the “Wet-shakes Latency, % change” value is “+47%^(h)”; the “Wet-shakes Presence, % change” value is listed as −20%^(g). In the series with Male Wistar rats [3] (setting [5]), the “Wet-shakes Presence” value is recorded as 8 ^NS, the “Forelimb Clonus No.” value is 1.9 ^NS, the “Rearings Latency” value is 4896 ^NS seconds and the “Rearings with Forelimb Clonus Latency” value is given as 6009 * seconds. In the series on Male Wistar rats [3] (setting [5]), the “Wet-shakes Latency” value is on record as 3615 ^NS seconds, the “Rearings Presence” value was 6 ^NS and the “Rearings with Forelimb Clonus Presence” value is 7 ^NS. In the series on Male Wistar rats [3] (setting [6]), the “Forelimb Clonus No., % change” value is reported as −11%; the “Rearings Latency, % change from vehicle” value is reported as “+4%”; the “Rearings Presence, % change from vehicle” value was 0%; the “Rearings with Forelimb Clonus Latency, % change from vehicle” value was “+7%”. Besides, in the series on Male Wistar rats [3] (setting [6]), the “Rearings with Forelimb Clonus Presence, % change from vehicle” value was −10%; the “Wet-shakes Latency, % change” value was “+9%”; the “Wet-shakes Presence, % change” value is on record as 0%. Moreover, in the series on Male Wistar rats [3] (setting [7]), the “Wet-shakes Presence” value is 10 ^NS, the “Forelimb Clonus No.” value was 2.5 ^NS, the “Rearings Latency” value is 4134 ^NS seconds and the “Rearings with Forelimb Clonus Latency” value is 5366 ^NS seconds. In the series with Male Wistar rats [3] (setting [7]), the “Wet-shakes Latency” value is 2666 ^NS seconds, the “Rearings Presence” value was 9 ^NS and the “Rearings with Forelimb Clonus Presence” value is on record as 9 ^NS. Also, in the series with Male Wistar rats [3] (setting [8]), the “Forelimb Clonus No., % change” value was −18%; the “Rearings Latency, % change from vehicle” value is “+14%”; the “Rearings Presence, % change from vehicle” value is recorded as −11%; the “Rearings with Forelimb Clonus Latency, % change from vehicle” value is on record as “+7%”. In the series on Male Wistar rats [3] (setting [8]), the “Rearings with Forelimb Clonus Presence, % change from vehicle” value is given as −10%; the “Wet-shakes Latency, % change” value is “+17%”; the “Wet-shakes Presence, % change” value was determined as 0%. Moreover, in the series with Male Wistar rats [3] (setting [9]), the “Wet-shakes Presence” value was 10 ^NS, the “Forelimb Clonus No.” value was 2.3 ^NS, the “Rearings Latency” value is 4526 ^NS seconds and the “Rearings with Forelimb Clonus Latency” value is recorded as 5410 ^NS seconds. Besides, in the series with Male Wistar rats [3] (setting [9]), the “Wet-shakes Latency” value is 2865 ^NS seconds, the “Rearings Presence” value is recorded as 8 ^NS and the “Rearings with Forelimb Clonus Presence” value is recorded as 9 ^NS.
For the compound `CN1C(=O)CN=C(c2ccccc2)c2cc(Cl)ccc21` [Diazepam], in the series with Male Wistar rats [3] (setting [10]), the “Forelimb Clonus No., % change” value was −79%; the “Rearings Latency, % change from vehicle” value is on record as “+8%”; the “Rearings Presence, % change from vehicle” value is 0%; the “Rearings with Forelimb Clonus Latency, % change from vehicle” value is listed as “+36%”. Further, in the series on Male Wistar rats [3] (setting [10]), the “Rearings with Forelimb Clonus Presence, % change from vehicle” value was −60%; the “Wet-shakes Latency, % change” value is recorded as “+53%”; the “Wet-shakes Presence, % change” value was −10%. Also, in the series on Male Wistar rats [3] (setting [11]), the “Wet-shakes Presence” value was 9 ^NS, the “Forelimb Clonus No.” value is reported as 0.6 **, the “Rearings Latency” value was 4282 ^NS seconds and the “Rearings with Forelimb Clonus Latency” value is 6841 *** seconds. Moreover, in the series on Male Wistar rats [3] (setting [11]), the “Wet-shakes Latency” value is 3753 * seconds, the “Rearings Presence” value was 9 ^NS and the “Rearings with Forelimb Clonus Presence” value is given as 4 *^.
